Assay results taken from US20140128349A1 (Indiana University School of Medicine, priority 2012, published 2014).
Entries after “also recorded” stand apart in the source; their conditions may differ.

Tests used:
[1] = system: RyR2; settings: animals; cited from earlier work
[2] = molecular target: T1, RyR1 (Mus musculus, UniProt E9PZQ0); parameters: in a mouse model of aging, oxidation of skeletal muscle RyR1 causes depletion of the stabilizing subunit calstabin1 (FKBP12); from tissue; host or cells: skeletal muscle of aged (2 yr old) mice; settings: mouse model of aging; cited from earlier work
[3] = system: RyR; settings: cited from earlier work
[4] = molecular target: T1, RyR1; parameters: from tissue; host or cells: skeletal muscle of mdx mice; settings: mdx model of DMD; cited from earlier work
[5] = system: RyR; assay: S107 blood brain barrier crossing and calstabin binding to RyR in brain in vivo
Text: Data from heart and soleus muscle are also illustrated.
Cardiac muscle RyR2 is PKA hyperphosphorylated, oxidized, nitrosylated and depleted of calstabin2 in animal models of heart failure (HF) and in the hearts of patients with HF. […] Compounds of formula I-o, which share a common structure with S107, are also expected to have similar activities. This advantage is expected to enhance the ability of the TGFbeta inhibitor to be available to act upon most body tissues for improved effectiveness.

[6] = system: 1205Lu melanoma cells; assay: 1205Lu melanoma metastasis in nude mice; type: in vivo
Text: (§1) TGFbeta derived from bone fuels melanoma bone metastasis by inducing tumor secretion of pro-metastatic factors that act on bone cells to change the skeletal microenvironment. […] Hfg is active orally and by intraperitoneal injection, and it has completed Phase I clinical trials in cancer patients. It suppresses the phosphorylation and activation of Smad2 and Smad3 by inducting of Smad7. Overexpression of inhibitory Smad7 has been associated with a reduction on invasive capacity in vitro and anchorage-independent growth, and delays subcutaneous tumor growth in nude mice. The present inventors have shown that Smad7 overexpression decreased melanoma bone metastasis, thus is useful for treating and/or preventing muscle weakness and atrophy as well as other muscle related side effects in cancer patients.

[7] = system: human melanoma cells; assay: Hfg treatment of human melanoma cells; type: cell-based
Text: as §1

[8] = system: RyR1; assay: RyR1 oxidation/nitrosylation/calstabin1 immunoblot of EDL from PC-3 tumor bearing mice; type: in vivo; settings: mice with prostate cancer metastatic to bone
Procedure: (§2) In embodiments B and C are shown decreased skeletal muscle cross-sectional area in tumor-bearing mice determined by Micro-CT as described herein. In embodiments D and E are shown decreased body weight (D) and decreased Grip strength (E) in PC-3 tumor bearing mice. […] In embodiment J is shown that RyR1 is oxidized and there is decreased calstabin1 in the RyR1 complex from, skeletal muscle (EDL) from mice with metastatic prostate cancer. RyR1 was immunoprecipitated from 250 μg of EDL homogenate using an anti-RyR antibody (4 μg 5029 Ab), and the immunoprecipitates were separated on SDS-PAGE gels (6% for RyR. 15% for Calstabin). All immunoblots were developed and quantified with the Odyssey system (LI-COR, Inc., Lincoln, Nebr.) using IR labeled anti-mouse and anti-Rabbit IgG (1:10,000 dilution) secondary antibodies. […] Quantification of immunoblots showing the relative nitrotyrosine/SERCA for each group of EDLs tested. *p<0.01 compared to non-cancer controls as analyzed by ANOVA. […]
Quantification of RyR1 skeletal channel nitrosylation, oxidation and phosphorylation by protein kinase A (PKA) are performed as described (Bellinger et al., 2009; Bellinger et al., 2008b).
Quantification of depletion of the channel stabilizing subunit calstabin 1 (FKBP12) from skeletal RyR1 by immunoprecipitation techniques are performed as described (Marx et al., 2000). […]

[9] = co-administration of S107 and SD208 in tumor bearing mice; type: in vivo; settings: S107 in drinking water about 50 mg/kg/day
Procedure: For example, administering the TGFbeta kinase inhibitor SD208 prevents oxidation of RyR1 and SERCA in skeletal muscles from tumor bearing mice, thus increasing muscle specific force production and grip strength in these mice. The co-administration of S107 further inhibits SR Ca^2+ leak by reducing the stress-induced depletion of calstabin from the RyR channel complex. […] Thus, when these are co-administered, the benzothiazepine derivative is administered at a dosage of between about 20 mg/kg/day and about 100 mg/kg/day and the inhibitor is administered in an amount of about 10 mg/kg/day and about 50 mg/kg/day. The ratio of the amount of benzothiazepine derivative to inhibitor in the co-administered formulation should be between 1:1 to 5:1 and preferably 1.3:1 to 2.5:1. Also, the benzothiazepine and inhibitor can be administered at the same time in a single formulation or sequentially if each is present in a separate formulation.

[10] = EDL muscle specific force in mice with PC-3 prostate cancer bone metastases; type: in vivo; settings: hypogonadal mice with PC-3 prostate cancer metastatic to bone
Procedure: as §2, with “antibodies. Immunoblots developed using anti-RyR (clone 34C, 1:5,000), anti-Cys-NO (1:1000, Sigma, St. Louis, Mo.), anti-DNP (to determine RyR1 oxidation. 1:250), and anticalstabin (1:2500).” for “antibodies.”
S107 is administered in the drinking water at a dose of 50 mg/kg/d, water consumption is monitored and plasma drug levels determined. […]

[11] = system: LuCaP 23.1 human prostate cancer osteoblastic xenograft; assay: LuCaP 23.1 osteoblastic prostate cancer xenograft in tibia of nude mice; type: in vivo
Text: Four-week old, male nude mice were inoculated into the tibia with LuCaP 23.1 human prostate cancer osteoblastic xenograft (n=14-15/group).

[12] = system: PC-3 bone metastases; assay: PC-3 prostate cancer bone metastases in mice; type: in vivo; settings: osteolytic model; X-ray, osteolytic lesion area, survival
Text: For all mouse experiments, N=15 for each group of mice for tumors inoculated in the left cardiac ventricle (PC-3) or intratibially (LuCAP23.1) based on power analysis detailed below. Male nude mice are housed in laminar flow isolated hoods with water supplemented with vitamin K and autoclaved mouse chow provided ad libitum. Cells are introduced into mice at 4 wks of age. Animals are anesthetized with ketamine/xylazine and positioned ventral side up.
Multiple modalities of bone imaging including X-ray and μCT are used to longitudinally monitor the bone lesions and confirmed by histology and quantitative histomorphometry as previously described (Dunn et al., 2009; Guise et al., 1996b; Yin et al., 1999). Muscle mass are followed serially in vivo using the Piximus II system (Wiren et al., 2011) and microCT (Manske et al., 2011).

[13] = patients with prostate cancer bone metastases, regardless of radiographic phenotype; cited from earlier work

T1 sequence (E9PZQ0 whole entry): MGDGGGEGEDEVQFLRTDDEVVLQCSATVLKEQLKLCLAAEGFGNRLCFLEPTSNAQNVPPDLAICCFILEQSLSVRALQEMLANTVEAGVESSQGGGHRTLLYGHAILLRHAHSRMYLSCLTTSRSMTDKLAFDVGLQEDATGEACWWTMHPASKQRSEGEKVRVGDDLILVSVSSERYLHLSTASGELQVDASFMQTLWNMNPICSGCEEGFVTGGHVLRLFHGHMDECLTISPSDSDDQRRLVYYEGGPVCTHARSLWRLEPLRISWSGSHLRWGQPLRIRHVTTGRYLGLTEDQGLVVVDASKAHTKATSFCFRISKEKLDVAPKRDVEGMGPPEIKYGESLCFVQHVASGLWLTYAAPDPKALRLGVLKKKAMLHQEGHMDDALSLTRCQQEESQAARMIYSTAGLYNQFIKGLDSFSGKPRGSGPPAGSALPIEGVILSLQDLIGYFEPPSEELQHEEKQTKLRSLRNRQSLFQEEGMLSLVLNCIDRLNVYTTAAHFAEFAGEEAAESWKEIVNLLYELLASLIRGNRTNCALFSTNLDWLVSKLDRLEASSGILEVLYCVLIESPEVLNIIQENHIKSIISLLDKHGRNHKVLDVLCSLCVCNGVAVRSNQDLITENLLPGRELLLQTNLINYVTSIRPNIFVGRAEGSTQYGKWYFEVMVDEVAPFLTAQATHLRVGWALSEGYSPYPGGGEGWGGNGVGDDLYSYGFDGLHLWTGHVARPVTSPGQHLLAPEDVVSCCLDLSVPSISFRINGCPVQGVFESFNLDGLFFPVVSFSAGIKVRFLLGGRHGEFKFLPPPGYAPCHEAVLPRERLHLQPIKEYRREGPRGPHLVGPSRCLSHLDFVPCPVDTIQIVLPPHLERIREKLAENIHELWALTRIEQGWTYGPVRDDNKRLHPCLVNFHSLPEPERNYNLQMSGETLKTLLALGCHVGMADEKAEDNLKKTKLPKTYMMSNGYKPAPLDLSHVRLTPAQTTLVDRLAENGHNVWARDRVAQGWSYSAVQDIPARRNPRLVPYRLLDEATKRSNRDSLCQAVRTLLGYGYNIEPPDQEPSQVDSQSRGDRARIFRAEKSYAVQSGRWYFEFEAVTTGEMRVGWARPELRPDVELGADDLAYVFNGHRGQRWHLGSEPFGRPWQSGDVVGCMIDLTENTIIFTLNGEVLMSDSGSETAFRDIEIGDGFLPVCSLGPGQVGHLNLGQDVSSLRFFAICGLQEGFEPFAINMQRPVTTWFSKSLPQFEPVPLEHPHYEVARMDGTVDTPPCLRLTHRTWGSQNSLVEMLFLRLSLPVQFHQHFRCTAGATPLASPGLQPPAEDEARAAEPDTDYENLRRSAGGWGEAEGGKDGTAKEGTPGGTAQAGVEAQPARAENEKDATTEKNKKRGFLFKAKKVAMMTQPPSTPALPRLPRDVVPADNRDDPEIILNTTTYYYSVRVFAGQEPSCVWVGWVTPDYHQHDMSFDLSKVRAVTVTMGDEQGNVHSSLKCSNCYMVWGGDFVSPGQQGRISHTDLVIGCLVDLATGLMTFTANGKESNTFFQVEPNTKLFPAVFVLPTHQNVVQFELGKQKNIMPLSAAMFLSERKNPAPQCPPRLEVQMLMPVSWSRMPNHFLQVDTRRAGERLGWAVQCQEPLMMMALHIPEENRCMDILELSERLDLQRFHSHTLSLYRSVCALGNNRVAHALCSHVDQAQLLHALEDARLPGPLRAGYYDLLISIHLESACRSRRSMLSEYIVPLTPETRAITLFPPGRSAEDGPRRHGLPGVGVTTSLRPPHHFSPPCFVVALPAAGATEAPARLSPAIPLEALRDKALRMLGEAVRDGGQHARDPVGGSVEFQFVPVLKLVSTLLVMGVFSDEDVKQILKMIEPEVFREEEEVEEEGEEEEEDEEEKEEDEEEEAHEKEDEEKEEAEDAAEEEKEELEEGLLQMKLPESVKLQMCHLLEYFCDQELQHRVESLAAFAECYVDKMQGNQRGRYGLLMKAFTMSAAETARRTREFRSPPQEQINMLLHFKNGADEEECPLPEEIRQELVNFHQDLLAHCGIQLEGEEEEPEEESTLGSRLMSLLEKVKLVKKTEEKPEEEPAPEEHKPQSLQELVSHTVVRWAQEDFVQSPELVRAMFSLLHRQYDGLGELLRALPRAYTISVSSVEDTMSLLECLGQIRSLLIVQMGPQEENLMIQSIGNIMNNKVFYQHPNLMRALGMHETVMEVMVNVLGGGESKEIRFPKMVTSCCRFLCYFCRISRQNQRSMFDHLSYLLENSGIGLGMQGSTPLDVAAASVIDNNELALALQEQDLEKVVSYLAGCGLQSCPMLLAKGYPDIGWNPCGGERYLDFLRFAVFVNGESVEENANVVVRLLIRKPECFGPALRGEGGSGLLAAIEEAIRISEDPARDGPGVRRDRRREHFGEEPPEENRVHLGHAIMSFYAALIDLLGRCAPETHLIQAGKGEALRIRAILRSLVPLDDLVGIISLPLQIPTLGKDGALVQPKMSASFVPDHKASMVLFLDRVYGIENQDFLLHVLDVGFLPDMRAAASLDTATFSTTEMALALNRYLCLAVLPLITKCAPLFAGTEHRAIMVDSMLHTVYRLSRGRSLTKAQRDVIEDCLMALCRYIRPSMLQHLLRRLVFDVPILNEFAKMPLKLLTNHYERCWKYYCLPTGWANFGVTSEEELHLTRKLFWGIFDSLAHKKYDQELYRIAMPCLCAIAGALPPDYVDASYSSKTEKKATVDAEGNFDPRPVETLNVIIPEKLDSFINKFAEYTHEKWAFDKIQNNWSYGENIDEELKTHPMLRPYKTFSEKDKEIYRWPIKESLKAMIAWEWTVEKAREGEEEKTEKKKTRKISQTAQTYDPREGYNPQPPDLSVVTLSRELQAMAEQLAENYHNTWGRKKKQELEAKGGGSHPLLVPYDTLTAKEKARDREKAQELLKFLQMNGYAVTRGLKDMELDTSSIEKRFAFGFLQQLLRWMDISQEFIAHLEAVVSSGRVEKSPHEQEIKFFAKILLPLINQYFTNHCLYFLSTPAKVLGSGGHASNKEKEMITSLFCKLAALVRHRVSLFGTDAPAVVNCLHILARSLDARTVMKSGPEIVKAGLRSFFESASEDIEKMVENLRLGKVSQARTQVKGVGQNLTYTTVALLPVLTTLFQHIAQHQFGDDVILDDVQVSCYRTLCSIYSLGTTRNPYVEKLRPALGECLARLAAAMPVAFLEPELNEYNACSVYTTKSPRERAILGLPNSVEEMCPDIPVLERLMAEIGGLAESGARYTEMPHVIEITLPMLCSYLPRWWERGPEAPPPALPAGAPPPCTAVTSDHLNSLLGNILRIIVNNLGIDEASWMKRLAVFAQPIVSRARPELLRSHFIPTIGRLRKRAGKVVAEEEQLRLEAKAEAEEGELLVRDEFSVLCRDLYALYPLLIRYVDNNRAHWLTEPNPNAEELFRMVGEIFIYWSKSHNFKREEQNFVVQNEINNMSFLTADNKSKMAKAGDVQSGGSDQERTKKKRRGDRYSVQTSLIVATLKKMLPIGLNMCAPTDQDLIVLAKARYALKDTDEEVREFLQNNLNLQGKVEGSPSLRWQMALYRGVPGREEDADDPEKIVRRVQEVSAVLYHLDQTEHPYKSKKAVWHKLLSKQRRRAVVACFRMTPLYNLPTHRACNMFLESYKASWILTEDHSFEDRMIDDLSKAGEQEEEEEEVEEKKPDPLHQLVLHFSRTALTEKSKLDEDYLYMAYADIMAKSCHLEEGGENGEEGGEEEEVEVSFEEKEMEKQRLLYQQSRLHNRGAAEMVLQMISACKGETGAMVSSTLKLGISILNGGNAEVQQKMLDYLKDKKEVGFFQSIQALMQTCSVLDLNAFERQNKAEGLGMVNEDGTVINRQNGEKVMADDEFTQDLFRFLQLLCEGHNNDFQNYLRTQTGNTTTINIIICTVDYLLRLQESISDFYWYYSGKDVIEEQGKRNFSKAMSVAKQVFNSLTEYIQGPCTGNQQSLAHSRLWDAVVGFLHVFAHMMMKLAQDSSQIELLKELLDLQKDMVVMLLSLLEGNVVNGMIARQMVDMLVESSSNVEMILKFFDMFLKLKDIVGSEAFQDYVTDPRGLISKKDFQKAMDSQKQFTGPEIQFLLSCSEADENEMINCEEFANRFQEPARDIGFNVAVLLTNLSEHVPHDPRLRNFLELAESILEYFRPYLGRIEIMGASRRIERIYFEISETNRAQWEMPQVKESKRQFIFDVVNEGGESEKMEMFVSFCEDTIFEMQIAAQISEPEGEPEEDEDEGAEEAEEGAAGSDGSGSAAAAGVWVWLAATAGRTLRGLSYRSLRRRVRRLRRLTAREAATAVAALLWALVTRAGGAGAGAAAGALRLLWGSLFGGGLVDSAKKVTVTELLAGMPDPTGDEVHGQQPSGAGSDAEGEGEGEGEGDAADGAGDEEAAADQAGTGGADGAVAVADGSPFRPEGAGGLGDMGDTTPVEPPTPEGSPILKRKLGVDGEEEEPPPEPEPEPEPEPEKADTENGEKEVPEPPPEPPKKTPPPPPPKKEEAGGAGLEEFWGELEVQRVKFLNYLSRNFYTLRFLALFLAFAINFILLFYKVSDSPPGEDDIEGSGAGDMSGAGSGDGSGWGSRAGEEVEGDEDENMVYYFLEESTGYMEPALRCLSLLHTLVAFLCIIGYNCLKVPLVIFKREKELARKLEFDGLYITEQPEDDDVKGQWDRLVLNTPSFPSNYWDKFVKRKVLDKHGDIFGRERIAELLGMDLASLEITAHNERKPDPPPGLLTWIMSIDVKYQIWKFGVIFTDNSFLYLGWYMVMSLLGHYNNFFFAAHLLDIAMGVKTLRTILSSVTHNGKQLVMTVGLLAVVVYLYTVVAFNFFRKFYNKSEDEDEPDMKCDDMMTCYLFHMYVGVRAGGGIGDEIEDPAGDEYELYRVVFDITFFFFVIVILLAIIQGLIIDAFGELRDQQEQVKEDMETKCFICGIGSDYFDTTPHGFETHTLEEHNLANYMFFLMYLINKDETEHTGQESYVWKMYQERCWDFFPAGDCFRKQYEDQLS
T1 sequence (P26883 2-108 partner limits assumed): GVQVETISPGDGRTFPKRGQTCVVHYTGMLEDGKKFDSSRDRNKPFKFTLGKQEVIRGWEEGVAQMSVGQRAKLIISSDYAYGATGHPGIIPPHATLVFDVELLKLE

## COc1ccc2c(c1)CN(C)CCS2 [S107]
[1]
  HF progression: inhibits HF progression
[2]
  SR Ca2+ leak (Ca2+ sparks, channel open probability): reduced SR Ca^2+ leak
  exercise capacity: improved
  muscle force production: improved muscle force production
  oxidation induced depletion of calstabin1 from RyR1: prevented oxidation induced depletion of calstabin1 from RyR1
  tetanic [Ca2+]: increased tetanic [Ca^2+]
[3]
  specificity: RyR specific
[4]
  grip strength: improves grip strength
  muscle damage: reduced muscle damage
[5]
  crossing of the blood brain barrier: crosses the blood brain barrier
[5]; mid-section and cerebellum
  binding of calstabin to RyR in the brain: enhances binding of calstabin to a RyR in the brain

## O=C(CC1NCCCC1O)Cn1cnc2cc(Br)c(Cl)cc2c1=O (stereo not shown) [Halofuginone]
[6]; assessed by radiography, vs placebo
  osteolysis in mice with established bone metastasis: significantly less osteolysis than mice receiving placebo
[6]; nude mice inoculated with 1205Lu melanoma cells
  bone metastasis, preventive protocol: inhibited bone metastasis
[7]
  cell proliferation: inhibited cell proliferation
  expression of TGFbeta target genes (PTHrP, CTGF, CXCR4, IL11): reducing expression of TGFbeta target genes

## Fc1ccc(Cl)cc1-c1nc(Nc2ccncc2)c2nccnc2n1 [SD-208]
[8]
  skeletal muscle RyR1 oxidation, nitrosylation and depletion of calstabin 1: prevented oxidation/nitrosylation/calstabin1 depletion from RyR1; also recorded: prevented oxidation of RyR1
[9]
  effect of oral SD208 about 30 mg/kg/day co-administered with S107: same effects as administering SD208 at a dosage of about 60 mg/kg/day
[10]
  muscle (EDL) specific force production: improved muscle specific force production
[11]; 50 or 150 mg/kg/day po, from 12 weeks post inoculation
  bone formation and tumor growth in LuCaP 23.1: does not increase bone formation or tumor growth
[11]; osteoblastic model
  efficacy against LuCAP23.1 bone metastases: not effective against LuCAP23.1 bone metastases
[12]
  prevention of PC-3 bone metastases: highly effective to prevent bone metastases due to PC-3; also recorded: prevents PC-3 bone metastases

## denosumab: inhibitor of bone resorption
[13]
  skeletal morbidity: reduce skeletal morbidity
